Reference: paper PMC6777825, “Differential scanning fluorimetric analysis of the amino-acid binding to taste receptor using a model receptor protein, the ligand-binding domain of fish T1r2a/T1r3” (PLoS ONE, 2019)
Read-outs that look alike come from different tables or passages of the source.

Tests used:
medaka T1r2a/T1r3LBD = medaka T1r2a/T1r3LBD (Oryzias latipes, UniProt A0A173M094+A0A173M0G2); assay: Differential scanning fluorimetry (DSF) thermal shift ligand-binding assay; design: species or system O. latipes; conditions: for ΔTm: average ± s.e.m., n = 4; for effect on thermal stability / Tm shift of T1r2a/T1r3LBD (in words): DSF, 0.1-10 mM amino acid; for Tm shift (in words): adding up to 10 mM
Method: The protein sample was prepared as described previously. Briefly, Drosophila S2 cells (Invitrogen) stably expressing C-terminal FLAG-tagged T1r2aLBD and T1r3LBD [11, 21] were cultured in ExpressFiveSFM (LifeTechnologies) for five days at 27 °C. The T1r2a/T1r3-LBD protein was purified from the culture medium by the use of ANTI-FLAG M2 Affinity Gel (SIGMA). The purified protein was dialyzed against the assay buffer (20 mM Tris-HCl, 300 mM NaCl, 2 mM CaCl2, pH 8.0).
The protein sample (~1 μg) was mixed with Protein Thermal Shift Dye (Applied Biosystems) and 10~10,000 μM concentration of each amino acid in 20 μL of assay buffer and loaded to a MicroAmpR Fast Optical 48-Well Reaction Plate (Applied Biosystems). Specifically, to minimize the changes of the chemical and optical condition, the amino acid solutions were prepared by the exact same buffer used for the final dialysis of the protein, followed by the re-adjustment of the pH to ~ 8.0 by addition of either NaOH or HCl, and mixed with the protein diluted with the same buffer.
Fluorescent intensity was measured by the StepOne Real-Time PCR System (Applied Biosystems). The temperature was raised from 25 °C to 99 °C with a velocity of 0.022 °C/sec. The reporter and quencher for detection were set as “ROX” and “none”, respectively. Apparent melting transition temperature (Tm) was determined by the use of the maximum of the derivatives of the melt curve (dFluorescence/dT) by Protein Thermal Shift Software version 1.3 (Applied Biosystems).
The apparent dissociation constant (Kd-app) derived from the DSF results was estimated based on Eq 1 proposed by Schellman, assuming that the unfolding of the protein is reversible: ΔTm=Tm−T0=TmT0R/ΔH^0ln(1+[L]/Kd-app) (1) where [L] is the ligand concentration; Tm and T0 are the apparent melting transition temperatures in the presence and absence of the ligand; R is the gas constant; ΔH^0 is the enthalpy of unfolding at T0, assuming that there are no significant variations under the tested conditions. If the melt curves show biphasic profiles, the second (or the right side) Tm values were adopted for calculation, as described in the Results section.
For multiple regression analyses shown in Fig 2B, the apparent Tm values determined at different ligand concentrations were fitted to Eq 1 by using KaleidaGraph (Synergy Software), assuming that the change of the dissociation constant accompanied by the Tm shift is negligible.

[1] = target: T1r2a/T1r3 full-length receptor (Oryzias latipes, UniProt A0A173M094+A0A173M0G2); assay: Ca2+-flux receptor response assay in Flip-In 293 cells stably expressing full-length T1r2a, T1r3 and Gα16-gust44; assay type: cell-based, O. latipes; conditions: for ΔRFU: average ± s.e.m.
Method: The Ca^2+-flux assay was performed using Flip-In 293 cell line (Life Technologies) stably expressing full-length T1r2a, T1r3, and Gα16-gust44 as described previously. The response stimulated by either 5 or 10 mM amino acid was represented asΔRFU (delta relative fluorescence unit) defined as the maximum fluorescence intensity induced by the addition of the amino acid, subtracted with that of an assay buffer in the absence of amino acid.

[2] = cited from earlier work; for Hydropathy Index: hydrophobicity/hydrophilicity, ref Kyte & Doolittle, J. Mol. Biol., 157, 105 (1982); for pI: ref Handbook of Chemistry and Physics, CRC Press; for logKd_CW (polarity): transfer from cyclohexane to an aqueous solution, ref Radzicka & Wolfenden, Biochemistry, 27, 1664 (1988); for Es'c (steric effects) / πα (hydrophobicity) / HP (hydration potential): α-substituent group; for Es'c (steric effects) / πα (hydrophobicity): ref Akamatsu et al., J. Pharm. Sci., 83, 1026 (1994); for HP (hydration potential): ref Wolfenden et al., Biochemistry, 20, 849 (1981)
[3] = 5 mM amino acid, n = 6 (n = 12 for L-glutamine)
[4] = estimated from ΔRFU at 10 mM by Hill equation, ΔRFUmax 104.3, read-out: EC50-est
[5] = from response at 10 mM, log 1/EC50-est, read-out: pEC50-est (converted)
[6] = from ΔTm at 0.1 mM via Eq 1, T0 326.1 K, ΔH0 72.1 kcal mol-1, read-out: Kd-app estimated at a single ligand concentration
[7] = from ΔTm at 1 mM via Eq 1, T0 326.1 K, ΔH0 72.1 kcal mol-1, read-out: Kd-app estimated at a single ligand concentration
[8] = from ΔTm at 10 mM via Eq 1, T0 326.1 K, ΔH0 72.1 kcal mol-1, read-out: Kd-app estimated at a single ligand concentration
[9] = log 1/Kd-app, converted from S1 Table values (10 mM; L-Ala 1 mM, L-Gln 0.1 mM)
[10] = from response at 10 mM, log 1/EC50-est

Chain of T1r2a/T1r3 full-length receptor (A0A173M0G2 entry or part of it): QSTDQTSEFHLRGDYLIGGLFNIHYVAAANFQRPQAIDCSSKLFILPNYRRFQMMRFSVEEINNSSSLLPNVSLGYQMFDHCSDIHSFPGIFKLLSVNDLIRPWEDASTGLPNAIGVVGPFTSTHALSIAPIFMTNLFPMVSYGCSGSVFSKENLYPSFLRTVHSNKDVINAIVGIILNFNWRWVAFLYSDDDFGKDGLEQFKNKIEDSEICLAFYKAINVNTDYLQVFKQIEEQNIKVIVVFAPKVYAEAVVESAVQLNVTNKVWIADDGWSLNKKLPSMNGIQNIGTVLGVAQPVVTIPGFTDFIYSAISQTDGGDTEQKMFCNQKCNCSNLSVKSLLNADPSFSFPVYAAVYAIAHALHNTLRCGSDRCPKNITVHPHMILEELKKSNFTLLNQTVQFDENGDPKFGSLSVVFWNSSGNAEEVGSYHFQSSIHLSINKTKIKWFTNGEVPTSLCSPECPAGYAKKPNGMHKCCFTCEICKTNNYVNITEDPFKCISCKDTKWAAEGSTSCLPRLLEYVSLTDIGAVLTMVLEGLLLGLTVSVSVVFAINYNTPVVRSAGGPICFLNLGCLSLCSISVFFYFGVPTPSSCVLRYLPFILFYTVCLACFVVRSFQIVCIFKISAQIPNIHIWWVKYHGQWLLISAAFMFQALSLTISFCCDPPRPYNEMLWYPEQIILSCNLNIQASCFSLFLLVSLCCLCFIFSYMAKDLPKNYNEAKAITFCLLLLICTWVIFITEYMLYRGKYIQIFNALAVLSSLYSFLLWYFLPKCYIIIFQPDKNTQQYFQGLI
Chain of T1r2a/T1r3 full-length receptor (A0A173M094 entry or part of it): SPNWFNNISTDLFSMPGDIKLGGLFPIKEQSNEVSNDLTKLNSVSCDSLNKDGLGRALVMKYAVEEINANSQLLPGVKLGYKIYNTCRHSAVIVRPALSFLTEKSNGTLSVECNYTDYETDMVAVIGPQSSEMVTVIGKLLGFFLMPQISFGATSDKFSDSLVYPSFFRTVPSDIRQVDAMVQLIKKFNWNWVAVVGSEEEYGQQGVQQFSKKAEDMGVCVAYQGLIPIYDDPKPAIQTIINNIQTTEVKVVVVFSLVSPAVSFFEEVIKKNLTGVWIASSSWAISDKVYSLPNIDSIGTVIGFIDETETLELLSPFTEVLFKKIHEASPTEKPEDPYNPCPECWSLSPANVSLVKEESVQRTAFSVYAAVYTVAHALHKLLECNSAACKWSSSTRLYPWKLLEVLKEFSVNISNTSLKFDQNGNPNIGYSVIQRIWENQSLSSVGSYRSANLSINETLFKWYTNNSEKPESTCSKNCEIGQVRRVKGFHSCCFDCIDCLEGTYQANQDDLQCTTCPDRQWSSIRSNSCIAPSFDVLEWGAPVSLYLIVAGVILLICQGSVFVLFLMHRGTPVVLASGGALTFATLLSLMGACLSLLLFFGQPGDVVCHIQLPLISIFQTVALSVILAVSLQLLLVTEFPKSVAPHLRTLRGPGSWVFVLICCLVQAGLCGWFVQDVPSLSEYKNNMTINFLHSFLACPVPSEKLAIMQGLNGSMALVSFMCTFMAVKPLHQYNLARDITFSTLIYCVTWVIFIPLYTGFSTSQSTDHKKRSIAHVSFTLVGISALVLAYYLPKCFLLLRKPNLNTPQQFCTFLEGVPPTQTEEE
Chain of medaka T1r2a/T1r3LBD (A0A173M094 entry or part of it): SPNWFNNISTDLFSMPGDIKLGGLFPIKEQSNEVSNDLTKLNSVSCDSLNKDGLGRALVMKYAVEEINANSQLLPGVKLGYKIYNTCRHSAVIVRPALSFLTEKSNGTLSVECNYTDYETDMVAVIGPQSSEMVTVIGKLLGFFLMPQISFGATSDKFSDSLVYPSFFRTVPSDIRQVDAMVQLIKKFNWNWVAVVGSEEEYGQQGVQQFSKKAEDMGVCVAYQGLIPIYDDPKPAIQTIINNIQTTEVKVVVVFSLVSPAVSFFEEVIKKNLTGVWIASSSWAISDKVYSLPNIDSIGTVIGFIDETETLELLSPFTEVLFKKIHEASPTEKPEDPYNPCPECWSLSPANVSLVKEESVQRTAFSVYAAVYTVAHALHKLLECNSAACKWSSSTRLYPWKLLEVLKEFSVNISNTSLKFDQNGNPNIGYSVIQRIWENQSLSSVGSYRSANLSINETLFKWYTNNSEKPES
Chain of medaka T1r2a/T1r3LBD (A0A173M0G2 entry or part of it): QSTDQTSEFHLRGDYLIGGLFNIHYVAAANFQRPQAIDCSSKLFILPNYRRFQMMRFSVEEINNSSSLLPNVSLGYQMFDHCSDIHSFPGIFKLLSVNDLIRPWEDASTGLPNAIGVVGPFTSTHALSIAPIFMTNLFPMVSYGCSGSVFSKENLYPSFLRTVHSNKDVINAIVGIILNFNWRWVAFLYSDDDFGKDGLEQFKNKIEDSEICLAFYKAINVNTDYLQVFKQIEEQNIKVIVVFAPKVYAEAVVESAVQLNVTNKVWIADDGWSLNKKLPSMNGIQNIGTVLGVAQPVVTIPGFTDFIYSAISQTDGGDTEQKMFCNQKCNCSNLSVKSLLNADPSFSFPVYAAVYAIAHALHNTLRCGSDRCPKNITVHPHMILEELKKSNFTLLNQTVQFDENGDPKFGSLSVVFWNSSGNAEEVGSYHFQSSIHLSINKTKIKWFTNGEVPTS

Row | SMILES | ΔTm (medaka T1r2a/T1r3LBD; 0.1 mM amino acid) | ΔTm (medaka T1r2a/T1r3LBD; 1 mM amino acid) | ΔTm (medaka T1r2a/T1r3LBD; 10 mM amino acid) | ΔRFU [1, 3] | ΔRFU ([1]; 10 mM amino acid, n = 6) | EC50 [1, 4] | potency estimated from few doses (medaka T1r2a/T1r3LBD; [6]) | potency estimated from few doses (medaka T1r2a/T1r3LBD; [7]) | potency estimated from few doses (medaka T1r2a/T1r3LBD; [8]) | pKd-app (medaka T1r2a/T1r3LBD; [9]) | pEC50-est [1, 10] | Hydropathy Index [2] | pI [2] | logKd_CW (polarity) [2] | Es'c (steric effects) [2] | πα (hydrophobicity) [2] | HP (hydration potential) [2] | other results
1 | C[C@@H](N)C(=O)O [D-Ala, D-alanine] | 0.15 ± 0.05 K | -0.33 ± 0.07 K | -1.03 ± 0.09 K | 7.08 ± 2.16 | 23.6 ± 8.83 | 34.2 mM | – | – | – | – | – | – | – | – | – | – | – | effect on thermal stability / Tm shift of T1r2a/T1r3LBD (in words) (medaka T1r2a/T1r3LBD): thermal destabilization; Tm shift (in words) (medaka T1r2a/T1r3LBD; listed as D-alanine): did not induce a significant Tm shift; Tm shift (in words) (medaka T1r2a/T1r3LBD; listed as d-alanine): no substantial Tm shifts; potency estimated from few doses (medaka T1r2a/T1r3LBD; read-out: Kd-app estimated at a single ligand concentration, from ΔTm at 0.1 mM via Eq 1, T0 326.1 K, ΔH0 72.1 kcal mol-1): 1.95 mM; full-length receptor response (in words) ([1]; 5 or 10 mM, compared to enantiomer L-alanine): significantly weak responses; EC50 ([1]; estimated from ΔRFU at 5 mM by Hill equation, ΔRFUmax 104.3, read-out: EC50-est): 68.7 mM; EC50 ([1]; from response at 5 mM, log 1/EC50-est, read-out: pEC50-est (converted)): 69.2 mM; EC50 [1, 5]: 33.9 mM
2 | NC(=O)C[C@H](N)C(=O)O [L-Asn] | 0.12 ± 0.07 K | 0.38 ± 0.06 K | 4.36 ± 0.99 K | 0.460 ± 2.58 | 15.7 ± 6.13 | 56.3 mM | 2.4 mM | 7.33 mM | 3 mM | 2.52 | 1.25 | -3.5 | 5.41 | 4.88 | -0.98 | -0.52 | -9.68 | –
3 | N[C@@H](CC(=O)O)C(=O)O [L-Asp, L-aspartate] | -0.06 ± 0.17 K | -1.71 ± 0.19 K | 0.74 ± 0.05 K | -4.00 ± 1.10 | -9.43 ± 1.83 | – | – | – | 34.9 mM | – | – | -3.5 | 2.77 | 3.27 | -0.98 | 0.05 | -10.95 | effect on thermal stability / Tm shift of T1r2a/T1r3LBD (in words) (medaka T1r2a/T1r3LBD): destabilized the protein; Kd (medaka T1r2a/T1r3LBD; log 1/Kd-app, converted from S1 Table values (10 mM; L-Ala 1 mM, L-Gln 0.1 mM), read-out: pKd-app (converted)): 34.7 mM
4 | N[C@@H](Cc1c[nH]cn1)C(=O)O [L-His] | -3.75 ± 0.33 K | 1.21 ± 0.02 K | 5.81 ± 0.07 K | 4.72 ± 2.39 | 14.4 ± 6.62 | 62.4 mM | – | 1.96 mM | 1.67 mM | 2.78 | 1.20 | -3.2 | 7.59 | 3.34 | -0.86 | 0.17 | -10.27 | –
5 | NCCCC[C@H](N)C(=O)O [L-Lys, L-lysine] | -0.04 ± 0.03 K | -0.40 ± 0.17 K | -3.83 ± 0.30 K | 8.68 ± 4.29 | 18.5 ± 8.01 | – | – | – | – | – | – | – | – | – | – | – | – | effect on thermal stability / Tm shift of T1r2a/T1r3LBD (in words) (medaka T1r2a/T1r3LBD; listed as L-lysine): thermal destabilization; effect on thermal stability / Tm shift of T1r2a/T1r3LBD (in words) (medaka T1r2a/T1r3LBD; listed as lysine): destabilized the protein; EC50 ([1]; EC50-est, estimated from ΔRFU at 5 mM by Hill equation, ΔRFUmax 104.3): 55.1 mM; EC50 ([1]; EC50-est, estimated from ΔRFU at 10 mM by Hill equation, ΔRFUmax 104.3): 46.5 mM; EC50 ([1]; pEC50-est, from response at 5 mM, log 1/EC50-est): 55 mM; EC50 ([1]; pEC50-est, from response at 10 mM, log 1/EC50-est): 46.8 mM
6 | N[C@@H](Cc1ccccc1)C(=O)O [L-Phe] | 0.30 ± 0.04 K | 1.04 ± 0.12 K | 3.53 ± 0.05 K | 2.08 ± 2.32 | 22.4 ± 5.78 | 36.5 mM | 0.918 mM | 2.37 mM | 4.37 mM | 2.36 | 1.44 | 2.8 | 5.48 | -2.19 | -0.9 | 1.78 | -0.76 | –
7 | O=C(O)[C@@H]1CCCN1 [L-Pro, L-proline] | -0.15 ± 0.04 K | 0.04 ± 0.07 K | 7.24 ± 0.02 K | 2.90 ± 1.93 | 45.1 ± 7.06 | 13.2 mM | – | – | – | – | – | – | – | – | – | – | – | potency estimated from few doses (medaka T1r2a/T1r3LBD; read-out: Kd-app estimated at a single ligand concentration, from ΔTm at 1 mM via Eq 1, T0 326.1 K, ΔH0 72.1 kcal mol-1): 79.9 mM; potency estimated from few doses (medaka T1r2a/T1r3LBD; read-out: Kd-app estimated at a single ligand concentration, from ΔTm at 10 mM via Eq 1, T0 326.1 K, ΔH0 72.1 kcal mol-1): 0.985 mM; EC50 [1, 5]: 13.2 mM

Continued, in another order:

Row | ΔTm (medaka T1r2a/T1r3LBD; 0.1 mM amino acid) | ΔTm (medaka T1r2a/T1r3LBD; 1 mM amino acid) | ΔTm (medaka T1r2a/T1r3LBD; 10 mM amino acid) | ΔRFU [1, 3] | ΔRFU ([1]; 10 mM amino acid, n = 6) | EC50 [1, 4] | potency estimated from few doses (medaka T1r2a/T1r3LBD; [6]) | potency estimated from few doses (medaka T1r2a/T1r3LBD; [7]) | potency estimated from few doses (medaka T1r2a/T1r3LBD; [8]) | pKd-app (medaka T1r2a/T1r3LBD; [9]) | pEC50-est [1, 10] | SMILES | Hydropathy Index [2] | pI [2] | logKd_CW (polarity) [2] | Es'c (steric effects) [2] | πα (hydrophobicity) [2] | HP (hydration potential) [2] | other results
8 | -0.50 ± 0.11 K | -0.57 ± 0.07 K | 2.89 ± 2.40 K | 2.90 ± 2.82 | 30.5 ± 6.26 | 24.2 mM | – | – | 6.04 mM | 2.22 | 1.62 | CC[C@H](C)[C@H](N)C(=O)O [L-Ile] | 4.5 | 6.02 | -3.62 | -1.81 | 1.43 | 2.15 | –
9 | 0.08 ± 0.09 K | -0.94 ± 0.07 K | 6.91 ± 0.05 K | 0.933 ± 1.91 | 27.8 ± 5.89 | 27.5 mM | 3.49 mM | – | 1.11 mM | 2.96 | 1.56 | CC(C)C[C@H](N)C(=O)O [L-Leu] | – | – | -3.62 | -1.44 | 1.52 | 2.28 | –
10 | 0.45 ± 0.11 K | 6.17 ± 0.05 K | 8.85 ± 0.06 K | -2.52 ± 1.72 | 21.8 ± 7.73 | 37.9 mM | 0.604 mM | 0.146 mM | 0.562 mM | 3.25 | 1.42 | CSCC[C@H](N)C(=O)O [L-Met] | 1.9 | 5.74 | -1.73 | -1.03 | 0.99 | -1.48 | –
